Laboratory results reported in the NIST ThermoML archive (doi:10.1021/je060271a).
Several values for one entry are separate records, joined by “and”; a condition that tells them apart may be missing. Identical values can stand only once. ± gives the expanded uncertainty stated by the source.

Settings: 303.16 K, Liquid, Vibrating tube method

With `CCCCCC(=O)OCC(COC(=O)CCCCC)(COC(=O)CCCCC)COC(=O)CCCCC` [pentaerythritol tetrahexanoate] the mass density (291.9 kPa) was 988.7 ± 1.2 kg/m3, the mass density (292.2 kPa) was 988.5 ± 1.2 kg/m3 and the mass density (292.6 kPa) was 988.6 ± 1.2 kg/m3. The mass density (292.9 kPa) was 988.6 ± 1.2 kg/m3, the mass density (297.1 kPa) was 988.4 ± 1.2 kg/m3 and the mass density (297.8 kPa) was 988.5 ± 1.2 kg/m3. For the same compound, the mass density (298.1 kPa) was 988.6 ± 1.2 kg/m3, the mass density (298.5 kPa) was 988.5 ± 1.2 kg/m3 and the mass density (298.7 kPa) was 988.6 ± 1.2 kg/m3. The mass density (299.2 kPa) was 988.5 ± 1.2 kg/m3, the mass density (299.3 kPa) was 988.6 ± 1.2 kg/m3 and the mass density (299.9 kPa) was 988.4 ± 1.2 kg/m3 and 988.6 ± 1.2 kg/m3. For the same compound, the mass density (300.4 kPa) was 988.6 ± 1.2 kg/m3, the mass density (300.7 kPa) was 988.6 ± 1.2 kg/m3 and the mass density (301.1 kPa) was 988.6 ± 1.2 kg/m3. The mass density (301.2 kPa) was 988.6 ± 1.2 kg/m3, the mass density (301.6 kPa) was 988.6 ± 1.2 kg/m3 and the mass density (302 kPa) was 988.5 ± 1.2 kg/m3. It also gave a mass density (302.1 kPa) of 988.5 ± 1.2 kg/m3, a mass density (302.7 kPa) of 988.6 ± 1.2 kg/m3 and a mass density (303 kPa) of 988.5 ± 1.2 kg/m3. It also gave a mass density (303.2 kPa) of 988.5 ± 1.2 kg/m3, a mass density (303.7 kPa) of 988.5 ± 1.2 kg/m3 and a mass density (303.9 kPa) of 988.6 ± 1.2 kg/m3. The mass density (304.2 kPa) was 988.5 ± 1.2 kg/m3, the mass density (304.5 kPa) was 988.6 ± 1.2 kg/m3 and the mass density (304.7 kPa) was 988.6 ± 1.2 kg/m3. It also gave a mass density (305.1 kPa) of 988.5 ± 1.2 kg/m3, a mass density (306.3 kPa) of 988.5 ± 1.2 kg/m3 and a mass density (306.6 kPa) of 988.6 ± 1.2 kg/m3. It also gave a mass density (307 kPa) of 988.6 ± 1.2 kg/m3, a mass density (307.3 kPa) of 988.6 ± 1.2 kg/m3 and a mass density (307.8 kPa) of 988.5 ± 1.2 kg/m3. The mass density (307.9 kPa) was 988.5 ± 1.2 kg/m3, the mass density (308.2 kPa) was 988.5 ± 1.2 kg/m3 and the mass density (308.7 kPa) was 988.6 ± 1.2 kg/m3. For the same compound, the mass density (309.1 kPa) was 988.5 ± 1.2 kg/m3, the mass density (309.4 kPa) was 988.6 ± 1.2 kg/m3 and the mass density (309.8 kPa) was 988.5 ± 1.2 kg/m3. For the same compound, the mass density (310.1 kPa) was 988.5 ± 1.2 kg/m3, the mass density (310.8 kPa) was 988.5 ± 1.2 kg/m3 and the mass density (311 kPa) was 988.5 ± 1.2 kg/m3. For the same compound, the mass density (311.3 kPa) was 988.6 ± 1.2 kg/m3, the mass density (311.7 kPa) was 988.6 ± 1.2 kg/m3 and the mass density (311.9 kPa) was 988.5 ± 1.2 kg/m3. The mass density (312.2 kPa) was 988.6 ± 1.2 kg/m3, the mass density (312.5 kPa) was 988.6 ± 1.2 kg/m3 and the mass density (313.6 kPa) was 988.6 ± 1.2 kg/m3. The mass density (314.6 kPa) was 988.6 ± 1.2 kg/m3, the mass density (315.8 kPa) was 988.6 ± 1.2 kg/m3 and the mass density (316.7 kPa) was 988.5 ± 1.2 kg/m3. For the same compound, the mass density (317.1 kPa) was 988.4 ± 1.2 kg/m3, the mass density (317.2 kPa) was 988.6 ± 1.2 kg/m3 and the mass density (317.4 kPa) was 988.5 ± 1.2 kg/m3. The mass density (317.9 kPa) was 988.5 ± 1.2 kg/m3, the mass density (318.1 kPa) was 988.6 ± 1.2 kg/m3 and the mass density (318.5 kPa) was 988.6 ± 1.2 kg/m3. The mass density (318.6 kPa) was 988.6 ± 1.2 kg/m3, the mass density (318.8 kPa) was 988.5 ± 1.2 kg/m3 and the mass density (319 kPa) was 988.5 ± 1.2 kg/m3. For the same compound, the mass density (319.3 kPa) was 988.5 ± 1.2 kg/m3, the mass density (319.5 kPa) was 988.5 ± 1.2 kg/m3 and the mass density (319.8 kPa) was 988.5 ± 1.2 kg/m3. For the same compound, the mass density (320.4 kPa) was 988.5 ± 1.2 kg/m3, the mass density (320.9 kPa) was 988.5 ± 1.2 kg/m3 and the mass density (321.2 kPa) was 988.5 ± 1.2 kg/m3. The mass density (321.9 kPa) was 988.6 ± 1.2 kg/m3, the mass density (322.3 kPa) was 988.6 ± 1.2 kg/m3 and the mass density (324.7 kPa) was 988.5 ± 1.2 kg/m3. For the same compound, the mass density (325.6 kPa) was 988.6 ± 1.2 kg/m3, the mass density (326.1 kPa) was 988.6 ± 1.2 kg/m3 and the mass density (326.6 kPa) was 988.4 ± 1.2 kg/m3 and 988.6 ± 1.2 kg/m3. For the same compound, the mass density (327 kPa) was 988.6 ± 1.2 kg/m3, the mass density (327.1 kPa) was 988.6 ± 1.2 kg/m3 and the mass density (327.3 kPa) was 988.6 ± 1.2 kg/m3. The mass density (327.7 kPa) was 988.6 ± 1.2 kg/m3, the mass density (328.4 kPa) was 988.5 ± 1.2 kg/m3 and the mass density (328.9 kPa) was 988.6 ± 1.2 kg/m3. It also gave a mass density (329.1 kPa) of 988.6 ± 1.2 kg/m3, a mass density (333.2 kPa) of 988.6 ± 1.2 kg/m3 and a mass density (333.9 kPa) of 988.6 ± 1.2 kg/m3. For the same compound, the mass density (339.3 kPa) was 988.7 ± 1.2 kg/m3, the mass density (339.7 kPa) was 988.6 ± 1.2 kg/m3 and the mass density (340.3 kPa) was 988.7 ± 1.2 kg/m3. The mass density (341 kPa) was 988.6 ± 1.2 kg/m3, the mass density (344.3 kPa) was 988.5 ± 1.2 kg/m3 and the mass density (344.5 kPa) was 988.7 ± 1.2 kg/m3. The mass density (344.7 kPa) was 988.6 ± 1.2 kg/m3, the mass density (345.2 kPa) was 988.6 ± 1.2 kg/m3 and the mass density (345.5 kPa) was 988.6 ± 1.2 kg/m3. The mass density (346.2 kPa) was 988.5 ± 1.2 kg/m3, the mass density (346.6 kPa) was 988.7 ± 1.2 kg/m3 and the mass density (346.9 kPa) was 988.6 ± 1.2 kg/m3. The mass density (347.3 kPa) was 988.5 ± 1.2 kg/m3, the mass density (347.6 kPa) was 988.6 ± 1.2 kg/m3 and the mass density (348.2 kPa) was 988.7 ± 1.2 kg/m3. For the same compound, the mass density (348.7 kPa) was 988.6 ± 1.2 kg/m3, the mass density (349.2 kPa) was 988.5 ± 1.2 kg/m3 and 988.6 ± 1.2 kg/m3 and the mass density (349.4 kPa) was 988.6 ± 1.2 kg/m3. It also gave a mass density (349.9 kPa) of 988.5 ± 1.2 kg/m3, a mass density (350.6 kPa) of 988.5 ± 1.2 kg/m3 and a mass density (350.9 kPa) of 988.6 ± 1.2 kg/m3. For the same compound, the mass density (351.5 kPa) was 988.7 ± 1.2 kg/m3 and 988.6 ± 1.2 kg/m3, the mass density (352 kPa) was 988.6 ± 1.2 kg/m3 and the mass density (352.8 kPa) was 988.6 ± 1.2 kg/m3. For the same compound, the mass density (353.2 kPa) was 988.8 ± 1.2 kg/m3 and 988.5 ± 1.2 kg/m3, the mass density (353.4 kPa) was 988.6 ± 1.2 kg/m3 and the mass density (353.5 kPa) was 988.6 ± 1.2 kg/m3. The mass density (354.1 kPa) was 988.7 ± 1.2 kg/m3, the mass density (354.2 kPa) was 988.6 ± 1.2 kg/m3 and the mass density (354.6 kPa) was 988.6 ± 1.2 kg/m3. The mass density (354.9 kPa) was 988.6 ± 1.2 kg/m3, the mass density (358.1 kPa) was 988.6 ± 1.2 kg/m3 and the mass density (358.4 kPa) was 988.7 ± 1.2 kg/m3. It also gave a mass density (358.9 kPa) of 988.6 ± 1.2 kg/m3, a mass density (359.4 kPa) of 988.6 ± 1.2 kg/m3 and a mass density (359.8 kPa) of 988.6 ± 1.2 kg/m3. For the same compound, the mass density (360.3 kPa) was 988.6 ± 1.2 kg/m3 and 988.5 ± 1.2 kg/m3, the mass density (364.5 kPa) was 988.6 ± 1.2 kg/m3 and the mass density (365 kPa) was 988.7 ± 1.2 kg/m3. For the same compound, the mass density (365.2 kPa) was 988.5 ± 1.2 kg/m3, the mass density (365.9 kPa) was 988.7 ± 1.2 kg/m3 and the mass density (366.2 kPa) was 988.7 ± 1.2 kg/m3. It also gave a mass density (366.6 kPa) of 988.7 ± 1.2 kg/m3, a mass density (367.3 kPa) of 988.8 ± 1.2 kg/m3 and a mass density (367.6 kPa) of 988.6 ± 1.2 kg/m3. For the same compound, the mass density (368 kPa) was 988.6 ± 1.2 kg/m3, the mass density (368.3 kPa) was 988.6 ± 1.2 kg/m3 and the mass density (368.6 kPa) was 988.7 ± 1.2 kg/m3. The mass density (369.5 kPa) was 988.6 ± 1.2 kg/m3, the mass density (369.9 kPa) was 988.6 ± 1.2 kg/m3 and the mass density (370 kPa) was 988.5 ± 1.2 kg/m3. For the same compound, the mass density (370.2 kPa) was 988.6 ± 1.2 kg/m3, the mass density (371.1 kPa) was 988.6 ± 1.2 kg/m3 and the mass density (371.3 kPa) was 988.6 ± 1.2 kg/m3. It also gave a mass density (371.6 kPa) of 988.7 ± 1.2 kg/m3, a mass density (372.1 kPa) of 988.7 ± 1.2 kg/m3 and a mass density (372.5 kPa) of 988.5 ± 1.2 kg/m3. The mass density (373 kPa) was 988.6 ± 1.2 kg/m3, the mass density (373.5 kPa) was 988.7 ± 1.2 kg/m3 and the mass density (374.2 kPa) was 988.6 ± 1.2 kg/m3. It also gave a mass density (374.6 kPa) of 988.6 ± 1.2 kg/m3, a mass density (374.9 kPa) of 988.6 ± 1.2 kg/m3 and a mass density (375.4 kPa) of 988.7 ± 1.2 kg/m3.
